Laboratory results from publication PMC12207590, “Substrate Specificity of the Organic Cation Transporters MATE1 and MATE2K and Functional Overlap with OCT1 and OCT2” (Journal of Medicinal Chemistry, 2025).
Read-outs that look alike come from different tables or passages of the source.

Assays:
MATE1 = target: T1, MATE1 (Homo sapiens, UniProt Q96FL8); assay: Uptake ratio in MATE1-overexpressing HEK293 cells vs empty vector (2.5 μM, 1 min, HPLC-MS/MS); format: cell-based
T1 sequence (Q96FL8 1-570): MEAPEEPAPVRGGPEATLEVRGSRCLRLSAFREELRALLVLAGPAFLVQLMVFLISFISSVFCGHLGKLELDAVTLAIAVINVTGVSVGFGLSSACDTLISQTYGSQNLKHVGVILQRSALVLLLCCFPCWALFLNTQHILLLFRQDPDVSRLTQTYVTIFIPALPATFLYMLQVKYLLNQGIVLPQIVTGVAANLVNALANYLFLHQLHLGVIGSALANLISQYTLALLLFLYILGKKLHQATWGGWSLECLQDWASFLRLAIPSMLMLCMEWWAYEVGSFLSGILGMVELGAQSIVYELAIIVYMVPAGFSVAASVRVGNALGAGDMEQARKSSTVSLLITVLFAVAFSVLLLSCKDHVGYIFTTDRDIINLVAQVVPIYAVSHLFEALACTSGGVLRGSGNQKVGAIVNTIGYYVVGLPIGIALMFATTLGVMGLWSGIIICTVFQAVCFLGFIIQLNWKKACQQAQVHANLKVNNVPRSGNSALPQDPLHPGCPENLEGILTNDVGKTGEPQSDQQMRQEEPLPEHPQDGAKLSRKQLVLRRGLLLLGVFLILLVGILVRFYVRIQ

MATE2K = MATE2K (Homo sapiens, UniProt Q86VL8); assay: Uptake ratio in MATE2K-overexpressing HEK293 cells vs empty vector (2.5 μM, 1 min, HPLC-MS/MS); format: cell-based
[1] = fold uptake over empty vector, 2.5 μM, 1 min
[2] = mean ratio of uptake in MATE1-overexpressing HEK293 cells vs empty vector, 2.5 μM, 1 min
[3] = mean ratio of uptake in MATE2K-overexpressing HEK293 cells vs empty vector, 2.5 μM, 1 min
[4] = uptake ratio MATE1-overexpressing vs empty-vector HEK293 cells, 2.5 μM, 1 min, mean
[5] = uptake ratio MATE2K-overexpressing vs empty-vector HEK293 cells, 2.5 μM, 1 min, mean

Chain of MATE2K (Q86VL8 1-566 isoform Q86VL8-3): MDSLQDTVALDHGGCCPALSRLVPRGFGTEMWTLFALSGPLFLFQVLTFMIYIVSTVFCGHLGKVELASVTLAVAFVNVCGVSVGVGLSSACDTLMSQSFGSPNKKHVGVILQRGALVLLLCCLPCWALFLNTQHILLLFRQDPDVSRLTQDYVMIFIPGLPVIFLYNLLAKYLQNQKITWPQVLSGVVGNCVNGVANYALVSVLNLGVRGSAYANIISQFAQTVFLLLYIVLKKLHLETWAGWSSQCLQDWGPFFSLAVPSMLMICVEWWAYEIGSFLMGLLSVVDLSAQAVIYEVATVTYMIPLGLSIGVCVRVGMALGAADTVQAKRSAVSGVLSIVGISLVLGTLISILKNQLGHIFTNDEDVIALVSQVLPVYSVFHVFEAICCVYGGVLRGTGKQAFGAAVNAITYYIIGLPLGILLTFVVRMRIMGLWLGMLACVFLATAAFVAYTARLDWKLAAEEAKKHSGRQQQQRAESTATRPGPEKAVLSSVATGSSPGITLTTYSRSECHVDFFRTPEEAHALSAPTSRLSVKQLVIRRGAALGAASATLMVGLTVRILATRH

COc1ccccc1OCCNCC(O)COc1cccc2[nH]c3ccccc3c12 [Carvedilol (R), Carvedilol]
MATE1 ratio (MATE1; [1]): 1.17
MATE1 (uptake ratio) (MATE1; [2]): 1.17
MATE2K ratio (MATE2K; [1]): 1.08
MATE2 (uptake ratio) (MATE2K; [3]): 1.08

Cn1c(=O)[nH]c2nc[nH]c2c1=O [1-Methylxanthine]
MATE1 (uptake ratio) (MATE1): 1.08
MATE1 ratio (MATE1): 1.08
MATE2 (uptake ratio) (MATE2K): 0.96
MATE2K ratio (MATE2K): 0.96

C[C@](N)(Cc1ccc(O)c(O)c1)C(=O)O [Methyldopa]
MATE1 ratio (MATE1; [1]): 1.04
MATE2K ratio (MATE2K; [1]): 1.15

COc1ccc(CC2c3cc(OC)c(OC)cc3CC[N+]2(C)CCC(=O)OCCCCCOC(=O)CC[N+]2(C)CCc3cc(OC)c(OC)cc3C2Cc2ccc(OC)c(OC)c2)cc1OC (stereo not drawn) [Atracurium]
MATE1 ratio (MATE1; [1]): 1.13
MATE1 (uptake ratio) (MATE1; [2]): 1.13
MATE2K ratio (MATE2K; [1]): 1.10
MATE2 (uptake ratio) (MATE2K; [3]): 1.1

C[C@]12CCC(=O)C=C1CC[C@@H]1[C@@H]2CC[C@@]2(C)[C@H]1CC[C@]2(C)O [17-Alpha-methyltestosterone]
MATE1 (uptake ratio) (MATE1): 1.17
MATE1 ratio (MATE1): 1.17
MATE2 (uptake ratio) (MATE2K): 1.22
MATE2K ratio (MATE2K): 1.22

N[C@@H](Cc1ccccc1)C(=O)O [Phenylalanine]
MATE1 ratio (MATE1; [1]): 0.66
MATE2K ratio (MATE2K; [1]): 1.01

OCCc1ccccc1
MATE1 ratio (MATE1; [1]): 1.39
MATE2K ratio (MATE2K; [1]): 1.20

CCN1CCC[C@H]1CNC(=O)c1c(OC)ccc(Br)c1OC [Remoxipride]
MATE1 ratio (MATE1; [1]): 1.19
MATE1 (MATE1; [4]): 1.19
MATE2K ratio (MATE2K; [1]): 1.21
MATE2 (MATE2K; [5]): 1.21

CC(C)(CO)[C@@H](O)C(=O)NCCC(=O)O [Pantothenic acid]
MATE1 ratio (MATE1; [1]): 1.48
MATE2K ratio (MATE2K; [1]): 1.71

CCCC[N+]1(C)[C@@H]2C[C@@H](OC(=O)[C@H](CO)c3ccccc3)C[C@H]1[C@@H]1O[C@@H]12 (stereo partly drawn) [Butylscopolamine]
MATE1 (uptake ratio) (MATE1): 23.84
MATE1 ratio (MATE1): 23.84
MATE1 ratio in this study (MATE1): 23.84
MATE2 (uptake ratio) (MATE2K): 1.7
MATE2K ratio (MATE2K): 1.70
MATE2K ratio in this study (MATE2K): 1.70

CN1[C@@H]2CC[C@H]1C[C@@H](OC(=O)c1c[nH]c3ccccc13)C2 [Tropisetron]
MATE1 (MATE1; [4]): 1.22
MATE2 (MATE2K; [5]): 1.15

COc1cc2c(cc1OC)[C@H](C)NCC2 [Salsolidine]
MATE1 (MATE1): 1.24
MATE1 ratio (MATE1): 1.24
MATE2 (MATE2K): 1.46
MATE2K ratio (MATE2K): 1.46

C[C@@H]1Cc2c(Cl)cc(C(=O)N[C@@H](Cc3ccccc3)C(=O)O)c(O)c2C(=O)O1 [Ochratoxin A]
MATE1 ratio (MATE1): 3.12
substrate of MATE1 (MATE1): substrates of MATE1
MATE2K ratio (MATE2K): 1.28

CC/C(=C(\c1ccc(O)cc1)c1ccc(OCCNC)cc1)c1ccccc1 [Endoxifen]
MATE1 ratio (MATE1; [1]): 1.30
MATE2K ratio (MATE2K; [1]): 1.21

CCN1CCN(Cc2ccc(Nc3ncc(F)c(-c4cc(F)c5nc(C)n(C(C)C)c5c4)n3)nc2)CC1 [Abemaciclib]
MATE1 ratio (MATE1; [1]): 1.06
MATE1 (uptake ratio) (MATE1; [2]): 1.06
MATE2K ratio (MATE2K; [1]): 1.01
MATE2 (uptake ratio) (MATE2K; [3]): 1.01

CNCc1ccc(CSCCN/C(=C/[N+](=O)[O-])NC)o1 [N-Desmethylranitidine]
MATE1 ratio (MATE1; [1]): 23.54
MATE2K ratio (MATE2K; [1]): 14.02

O=C1CCC[C@@H]2[C@H]3CCCN4CCC[C@@H](CN12)[C@@H]34 [Matrine]
MATE1 ratio (MATE1): 1.03
MATE2K ratio (MATE2K): 1.27

c1cnc2cc3c(cc2n1)[C@@H]1CNC[C@H]3C1 [Varenicline]
MATE1 ratio in this study (MATE1; Table S1, 2.5 μM, 1 min): 1.20
MATE1 (MATE1; [4]): 1.2
MATE2K ratio in this study (MATE2K; Table S1, 2.5 μM, 1 min): 1.30
MATE2 (MATE2K; [5]): 1.3

CCCCCCCN [Heptylamine]
MATE1 ratio (MATE1): 1.18
MATE2K ratio (MATE2K): 1.60

COc1ccc(CC(C)(C)NC[C@H](O)c2cc(O)cc3c2OCC(=O)N3)cc1 [Olodaterol]
MATE1 ratio (MATE1; [1]): 3.34
MATE2K ratio (MATE2K; [1]): 6.19

CNCCc1ccc(O)c(O)c1 [Deoxyepinephrine]
MATE1 ratio (MATE1; [1]): 34.31
MATE2K ratio (MATE2K; [1]): 3.40

Cc1ccc(C23CNCC2C3)cc1 (stereo not drawn) [Bicifadine]
MATE1 ratio (MATE1; [1]): 1.17
MATE1 (uptake ratio) (MATE1; [2]): 1.17
MATE2K ratio (MATE2K; [1]): 1.31
MATE2 (uptake ratio) (MATE2K; [3]): 1.31

CC(=O)OC1CN2CCC1CC2 (stereo not drawn) [Aceclidine]
MATE1 (uptake ratio) (MATE1): 1.26
MATE1 ratio (MATE1): 1.26
MATE2 (uptake ratio) (MATE2K): 1.08
MATE2K ratio (MATE2K): 1.08

O=C(O[C@H]1C[N+]2(CCCOc3ccccc3)CCC1CC2)C(O)(c1cccs1)c1cccs1 [Aclidinium]
MATE1 ratio (MATE1; [1]): 4.73
MATE1 (uptake ratio) (MATE1; [2]): 4.73
MATE2K ratio (MATE2K; [1]): 1.17
MATE2 (uptake ratio) (MATE2K; [3]): 1.17
